Source: the supplement of paper PMC10307832

Legend:
Test in all cases: relative viability (nuclei count vs DMSO), 5 days (fraction); higher = more cells survive
[1] = compound: C1=CC=C(C(=C1)C2=CC=C(C=C2)C3=CSC4=C3C(=C(C(=O)N4)C#N)O)O + COc1cccc2cc(-c3nc([C@H]4CC[C@H](C(=O)O)CC4)n4ncnc(N)c34)[nH]c12 [OSI-027] (partner 0.5 µM)
In short: (§1)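 Lung cancer cell lines in 1536-well plates were dosed by pin tool the day after seeding, either with one drug alone or with a fixed anchor-drug dose plus five library-drug doses (not always all listed) in √10 steps. After 5 days, cells were fixed and their nuclei stained in one step (final 0.05% Triton X-100, 1% formaldehyde, 1 ug/ml Hoechst), then counted on 4× images. Relative viability is the nuclei count in treated wells divided by that in vehicle wells. Values are medians of duplicate plates.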

[2] = compound: C1=CC=C(C(=C1)C2=CC=C(C=C2)C3=CSC4=C3C(=C(C(=O)N4)C#N)O)O + Nc1ncn([C@H]2C[C@H](O)[C@@H](CO)O2)c(=O)n1 [Decitabine] (partner 2 µM)
In short: as §1

[3] = compound: CC1=CN2C(=O)C=C(N=C2C(=C1)C(C)NC3=CC=CC=C3)N4CCOCC4 [TGX 221] + Nc1ncn([C@H]2C[C@H](O)[C@@H](CO)O2)c(=O)n1 [Decitabine] (partner 2 µM)
In short: as §1

[4] = compound: O=C(CCCCCCNC(=O)c1cnc(N(c2ccccc2)c2ccccc2)nc1)NO [Ricolinostat] + COc1cc2c(Oc3ccc(NC(=O)C4(C(=O)Nc5ccc(F)cc5)CC4)cc3F)ccnc2cc1OCCCN1CCOCC1 [Foretinib] (partner 0.25 µM)
In short: as §1

| Cell Line | relative viability ([1]; first compound 0.08 µM) | relative viability ([1]; first compound 0.8 µM) | relative viability ([1]; first compound 2.53 µM) | relative viability ([1]; first compound 8 µM) | relative viability ([2]; first compound 0.253 µM) | relative viability ([2]; first compound 0.8 µM) | relative viability ([2]; first compound 2.53 µM) | relative viability ([2]; first compound 8 µM) | relative viability ([3]; first compound 0.253 µM) | relative viability ([3]; first compound 0.8 µM) | relative viability ([3]; first compound 2.53 µM) | relative viability ([3]; first compound 8 µM) | relative viability ([1]; first compound 0.253 µM) | relative viability ([2]; first compound 0.08 µM) | relative viability ([3]; first compound 0.08 µM) | relative viability ([4]; first compound 0.08 µM) | relative viability ([4]; first compound 0.253 µM) | relative viability ([4]; first compound 0.8 µM) | relative viability ([4]; first compound 2.53 µM) |
| --- | --- | --- | --- | --- | --- | --- | --- | --- | --- | --- | --- | --- | --- | --- | --- | --- | --- | --- | --- |
| NCI-H1648 | 0.312 | 0.224 | 0.27 | 0.311 | 0.537 | 0.493 | 0.478 | 0.458 | 0.554 | 0.499 | 0.474 | 0.523 |  |  |  |  |  |  |  |
| NCI-H1755 | 0.762 | 0.616 | 0.686 | 0.751 | 0.723 | 0.722 | 0.749 | 0.731 | 0.657 | 0.655 | 0.631 | 0.632 | 0.848 | 0.736 | 0.723 | 0.853 | 0.925 | 0.903 | 0.91 |
| PC-3 [JPC-3] | 0.637 | 0.704 | 0.93 | 0.719 | 0.879 | 0.844 | 0.956 | 0.805 | 0.802 | 0.826 | 0.815 | 0.898 | 0.777 | 0.806 | 0.749 |  | 0.933 | 0.969 | 0.827 |
| HCC-44 |  | 0.518 | 0.558 | 0.523 | 1.05 | 0.985 | 0.895 | 0.934 | 0.957 | 1.03 | 1.04 | 1.02 | 0.588 | 1.01 | 0.921 |  |  |  |  |
| CAL-12T | 0.589 | 0.591 | 0.59 | 0.431 |  |  |  |  |  |  |  |  | 1.14 |  |  | 1.04 | 1.17 | 1.12 | 1.35 |
| ChaGo-K-1 | 0.475 | 0.485 | 0.571 | 0.528 | 0.58 | 0.587 | 0.535 | 0.506 | 0.519 | 0.563 | 0.544 | 0.548 | 0.569 | 0.507 | 0.485 | 0.895 | 0.912 | 0.861 | 0.86 |
| NCI-H2126 | 0.639 | 0.654 | 0.737 | 0.708 | 0.617 | 0.578 | 0.622 | 0.513 | 0.567 | 0.633 | 0.55 | 0.554 | 0.718 | 0.646 | 0.568 | 0.864 | 1.23 | 1.16 | 1 |
| HCC-827 | 0.691 | 0.699 | 0.881 | 0.739 | 0.361 | 0.277 | 0.351 | 0.313 | 0.359 | 0.281 | 0.305 | 0.327 | 0.862 | 0.318 | 0.292 | 0.998 | 1.06 | 1.04 | 0.964 |
| LCLC-97TM1 | 0.406 | 0.72 | 0.707 | 0.425 | 0.267 | 0.226 | 0.252 | 0.226 | 0.22 | 0.233 | 0.228 | 0.225 | 1.02 | 0.237 | 0.206 | 0.953 | 0.89 | 1 | 0.933 |
| HCC-15 | 0.667 | 0.699 | 0.704 | 0.571 | 0.671 | 0.625 | 0.814 | 0.494 | 0.648 | 0.636 | 0.591 | 0.709 | 0.735 | 0.444 | 0.699 | 0.876 | 1.03 | 1.05 | 1.05 |
